Measurements taken from patent US20070269793A1, “Bioactive Boxes for Cellular Cultures” (priority 2003, published 2007).

Experiments:
Type in all cases: cell-based, murine
B16 F0 and B16 F10 lines = assay: Proliferation, cell count (Malassez hemocytometer); settings: B16 F0 and F10 on PS in the presence of MSH 10^−7 M (same in its absence)
Description: (§1) The cells are cultured in medium supplemented by 10% foetal calf serum, 1% L-Glutamine and 0.5% antibiotics (penicillin, streptomycin).
(§2) —b—proliferation: 10,000 cells are seeded per cm^2. The cells are counted (Malassez hemocytometer) after culture for 24 and 48 hours.
(§3) It should be noted that the B16 F0 and B16 F10 lines proliferate more on cellulose that the B16 C3 line, which is non-metastatic. The number of B16 F0 and F10 cells is multiplied by 3 on cellulose. It is multiplied by 6 on PS, in the presence or absence of MSH 10^−7 M melanin-stimulating hormone used as a second control.

B16 C3 line = assay: Proliferation, cell count (Malassez hemocytometer); settings: B16 C3 on PS in the presence of MSH (same in its absence), 48 hours
Description: as §1, §2, §3

Fn = Fn synthesis (indirect immunolabelling); settings: three melanoma lines cultured on PS with MSH
B16 melanoma cells = assay: Calcium dependence of cell aggregation; settings: absence of Ca^++; 3 lines, after 1 and 3 hours

melanin-stimulating hormone [MSH]
number of cells multiplied by (B16 F0 and B16 F10 lines): 6
number of cells multiplied by (B16 C3 line): 2
Fn synthesis (Fn): increase in Fn synthesis

monencin
percentage of cells isolated (B16 melanoma cells): very significantly increased
